Experimental data: EPA's ToxValDB 9.5 (doi:10.2903/j.efsa.2016.4406)
Values after ≈ are worked out from the molar mass of the structure shown.

How the values were obtained:
Colinus virginianus = details: for LD50: acute, oral, mortality
Daphnia magna = details: chronic/long-term; duration: 21 days; reproduction
Folsomia candida = details: chronic/long-term; mortality
Oncorhynchus mykiss = details: acute, mortality
Rattus norvegicus = details: for LD50: acute, mortality
Tagia sp. = details: chronic/long-term; growth
Apis mellifera = details: acute, mortality
Chironomus tentans = details: chronic/long-term; duration: 24 days
Neomysis kadiakensis = details: chronic/long-term; duration: 28 days; reproduction
Pimephales promelas = details: chronic/long-term; duration: 266 days; reproduction

Row | Structure (SMILES) | LD50 (Colinus virginianus; diet) [mg/kg] | NOEC (Daphnia magna) [mg/L] | NOEC (Folsomia candida) [mg/kg] | LC50 (Oncorhynchus mykiss) [µg/mL] | LD50 (Rattus norvegicus) [mg/kg] | NOEC (Tagia sp.) [mg/kg] | LD50 (Rattus norvegicus; oral) [mg/kg] | NOAEL (Rattus norvegicus; subchronic, duration: 90 days, oral) [mg/kg-day] | LD50 (Apis mellifera; dermal) [µg/piece] | LD50 (Apis mellifera; oral, unspecified) [µg/piece] | NOEC (Chironomus tentans) [mg/L] | LD50 (Colinus virginianus) [mg/kg] | NOEL (Colinus virginianus; chronic, reproduction) [mg/kg-day] | NOEC (Neomysis kadiakensis) [mg/L] | LC50 (Oncorhynchus mykiss; duration: 96 hours) [µg/mL] | NOEC (Pimephales promelas) [mg/L] | NOAEL (Rattus norvegicus; chronic, body weight) [mg/kg-day]
1 | CSC1=N[C@@](C)(c2ccccc2)C(=O)N1 | 723 | 16 | 250 | > 98 | 176 | 100 | – | – | – | – | – | – | – | – | – | – | –
2 | CC1(c2ccccc2)NC(=O)NC1=O (configuration not stated) [5-Methyl-5-phenylhydantoin] | > 2500 | – | – | – | – | – | 1520 | 6.4 | – | – | – | – | – | – | – | – | –
3 | CSC1=N[C@@](C)(c2ccccc2)C(=O)N1Nc1ccccc1 [(S)-1-Anilino-4-methyl-2-methylthio-4-phenylimidazolin-5-one] | > 1070 | – | 2.26 | – | > 2030 | 0.63 | – | – | 25.7 | > 93.3 | 0.05 | > 2000 | 133 | 0.0095 | 0.74 (≈ 2.38 µM) | 0.07 | 3.9
